Assay results from patent publication US10451610B2, “Prediction of response to PARP inhibitors and combinational therapy targeting C-MET and PARP1” (Board of Regents, The University of Texas System, priority 2014, dated 2019).

Assays:
MDA-MB-231 cells = experiment: Cell viability assay; type: cell-based, human; details: for sensitivity to PARP inhibitor, clonogenic cell survival and cell viability: c-Met knockdown vs control, cells expressing wild-type PARP1, FIGS. 3H, 13D-E; for sensitivity of cells to PARP inhibitors: MDA-MB-231, c-Met inhibitor with ABT-888 (cell viability) or AG014699 (clonogenic), FIGS. 2D-E, 8D
Method: Cells (1,500) were seeded in a 96-well plate and treated with the indicated inhibitors for 72 h. Then cells were incubated in fresh media with 100 μM resazurin for 1 h. Cell viability was measured by fluorescent plate readers at spectra of 560EX nm/590EM nm. Survival curves were expressed as mean±s.d. relative to DMSO-treated control from three independent experiments.
Cell growth was measured by cell viability, clonogenic cell survival, or soft agar anchorage-independent cell growth assay.

[1] = tested on: γH2AX foci formation in MDA-MB-231 cells; experiment: γH2AX foci formation by immunofluorescence confocal microscopy; type: cell-based, human; details: c-Met inhibitor together with PARP inhibitor ABT-888; FIG. 3A
Method: Briefly, cells grown on chamber slides (Labtek, Scotts Valley, Calif.) were treated as described in the text. After washing with ice-cold PBS, cells were fixed, permeabilized, and incubated with primary antibodies and fluorescence-labeled secondary antibodies. Immunostained cells were examined using a Zeiss LSM 710 laser-scanning microscope (Carl Zeiss, Thornwood, N.Y.) with a 63×/1.4 objective. The ZEN and AxioVison (Carl Zeiss) and Image J software programs (National Institutes of Health, Bethesda, Md.) were used for data analysis. The mean±s.d. of fluorescence intensity of the indicated antibodies from five images in each treatment group was calculated.

[2] = tested on: phosphorylation of PARP1 at Y907; experiment: Western blot of H2O2-induced PARP1 pY907 in MDA-MB-231 cells; type: cell-based, human; details: pre-treatment before H2O2; FIG. 3G
Method: For immunoprecipitation (IP), lysates of cells treated as described in the text were precleared with 1 μg of mouse or rabbit IgG and 20 μl of protein G-agarose (Roche, Indianapolis, Ind.) for 1 h at 4° C. Pre-cleared lysates were incubated with 1 μg of primary antibodies or anti-IgG antibody at 4° C. overnight with gentle agitation. Lysates were further incubated with protein G-agarose for 30 min at 4° C. Protein G-agarose pellets were collected and washed three times at 4° C. The immunoprecipitants were subjected to sodium dodecyl sulfate-polyacrylamide gel electrophoresis (SDS-PAGE) and western blot analysis as described previously (Du et al., 2014).

[3] = tested on: PARP1 Y907 phosphorylation; experiment: PARP1-pY907 staining of MDA-MB-231 xenograft tumor tissues; type: in vivo, nude mice; details: tissues harvested within 24 h after last treatment; FIG. 4O
Method: All animal procedures were conducted under the approval of the Institutional Animal Care and Use Committee (IACUC) at MD Anderson Cancer Center (protocol number 10-14-07231). Female nude mice at 6-8 weeks of age were injected in their mammary fat pads with 0.5×10^6 MDA-MB-231 cells, 2×10^6 HCC1937 cells or 5×10^6 MCF-7 cells. Female FBV at 6-8 weeks of age were injected in their mammary fat pads with 0.5×10^6 A1034 cells. H1993 cells were injected subcutaneously into the right flank of female nude mice at 6-8 weeks of age. For MDA-MB-231 and A1034 cells xenograft mouse models, mice were imaged with the IVIS Imaging System 5 days after injection and were divided into treatment groups (n=10). […] After 2 weeks of treatment, tumor sizes were assessed using with the IVIS Imaging System. Mice were injected with 100 μl of D-luciferin (Xenogen; 15 mg/ml in PBS). After 10 min, mice were anesthetized with a mixture of oxygen and isoflurane (Inhalation Anesthesia System; Matrix Medical, Orchard Park, N.Y.) and underwent imaging with the IVIS Imaging System. Imaging parameters were maintained across experiments for comparative analyses. Tumor samples were collected after final treatment and analyzed by immunofluorescence staining. For toxicity assessment, mice were weighed before and after treatment. Blood samples were collected after treatment. […]

patients with TNBC [4] = details: phase 2, combined with chemotherapy; cited from earlier work
patients with TNBC [5] = details: phase 3; cited from earlier work
[6] = tested on: patients with wild-type BRCA; details: cited from earlier work

Compound	sensitivity to PARP inhibitor, clonogenic cell survival and cell viability (MDA-MB-231 cells)	sensitivity of cells to PARP inhibitors (MDA-MB-231 cells)	phosphorylation of PARP1 at Y907 induced by H2O2 [2]	also measured
C[C@]1(c2nc3c(C(N)=O)cccc3[nH]2)CCCN1 [ABT-888, Veliparib]	more sensitive			
CNCc1ccc(-c2[nH]c3cc(F)cc4c3c2CCNC4=O)cc1 [AG014699, Rucaparib]	more sensitive			
C[C@@H](Oc1cc(-c2cnn(C3CCNCC3)c2)cnc1N)c1c(Cl)ccc(F)c1Cl [crizotinib]		enhanced the sensitivity of cells to PARP inhibitors	abolished phosphorylation of PARP1 at Y907	γH2AX foci formation (marker of DNA damage) [1]: enhanced γH2AX foci formation; PARP1 Y907 phosphorylation in tumor tissue [3]: inhibited
COc1cc2c(Oc3ccc(NC(=O)C4(C(=O)Nc5ccc(F)cc5)CC4)cc3F)ccnc2cc1OCCCN1CCOCC1 [foretinib]		enhanced the sensitivity of cells to PARP inhibitors	abolished phosphorylation of PARP1 at Y907	
NC(=O)c1ccc(I)c([N+](=O)[O-])c1 [iniparib]				clinical benefit (patients with TNBC [4]): improved clinical benefits; overall survival or progression free survival benefit (patients with TNBC [5]): did not provide significant overall survival or progression free survival benefit
O=C(c1cc(Cc2n[nH]c(=O)c3ccccc23)ccc1F)N1CCN(C(=O)C2CC2)CC1 [olaparib]				clinical response [6]: demonstrated response
